In brackets after ≈: the same amount, converted by molar mass.

The values below come from publication PMC10180076, “Novel Biologically Active N-Substituted Benzimidazole Derived Schiff Bases: Design, Synthesis, and Biological Evaluation” (Molecules, 2023).

Data set [1] has as its system DND-41, acute lymphoblastic leukemia. The experiment in a line: Proliferation assay (MTS, 72 h), DND-41. It counts as cell-based, human. Conditions: Homo sapiens, DND41. The source says:
(§1) Human cancer cells used in this manuscript, namely Capan-1, HCT-116, NCI-H460, LN-229, HL-60, K-562, and Z-138, were acquired from the American Type Culture Collection (ATCC, Manassas, VA, USA), while the DND-41 cell line was purchased from the Deutsche Sammlung von Mikroorganismen und Zellkulturen (DSMZ Leibniz-Institut, Braunschweig, Germany). Culture media were purchased from Gibco Life Technologies, Merelbeke, Belgium, and supplemented with 10% fetal bovine serum (HyClone, Cytiva, Marlborough, MA, USA). Vincristine and docetaxel, which were used as the reference inhibitors, were purchased from Selleckchem (Munich, Germany). Stock solutions were prepared in DMSO.
(§2) Adherent cell lines LN-229, HCT-116, and NCI-H460 and Capan-1 cells were seeded at a density between 500 and 1500 cells per well, in 384-well tissue culture plates (Greiner, Kremsmünster, Austria). After overnight incubation, the cells were treated with seven different concentrations of the test compounds, ranging from 100 to 0.006 µM.
(§3) Suspension cell lines HL-60, K-562, Z-138, and DND-41 were seeded at densities ranging from 2500 to 5500 cells per well in 384-well culture plates containing the test compounds at the same concentration points. The cells were incubated for 72 h with the compounds and were then analyzed using the CellTiter 96® AQueous One Solution Cell Proliferation Assay (MTS) reagent (Promega, Madison, WI, USA) according to the manufacturer’s instructions. […] The compounds were tested in two independent experiments.

Data set [2] relates to Capan-1, pancreatic adenocarcinoma. The data set is described as follows: Proliferation assay (MTS, 72 h), Capan-1. In kind it is cell-based, human. The settings on record: Homo sapiens, CAPAN-1.
Source text: as §1, §2, §3

The subject of the next data set is E. coli efflux del. The data set is described as follows: microbe, parasite or virus in culture. In kind it is cell-based. The settings on record: Table 2 prints no unit; μM for compounds; antibiotics tested at 0.125–64 µg/mL. On the procedure: (§4) Selected bacterial strains were Gram-negative E. coli, K. pneumoniae, A. baumannii and P. aeruginosa and Gram-positive S. aureus, S. pneumoniae, and E. faecalis. The synthesized compounds were prepared as 10 mM DMSO solutions and tested in a final concentration range of 0.2–100 µM [39].
(§5) Broth microdilution testing was performed according to CLSI (Clinical Laboratory Standards Institute) guidelines. The MIC (minimal inhibitory concentration) value was defined as the last tested concentration of the compound at which there was no visible growth of bacteria. Inoculums for each microorganism were prepared using the direct colony suspension method, where broth solutions that achieved turbidity equivalent to 0.5 McFarland standard were additionally diluted 100× with Ca adjusted MH media (Becton Dickinson, Franklin Lakes, NJ, USA). All of the test plates were incubated for 16–24 h at 37 °C.
(§6) Methods for dilution of antimicrobial susceptibility tests for bacteria that grow aerobically followed M07, 11th edition, 2018, and Clinical and Laboratory Standards Institute (CLSI) guidelines. Performance standards for antimicrobial susceptibility testing followed the M100, 28th edition, 2018.

Another data set concerns NCI-H460, lung carcinoma. The data set is described as follows: Proliferation assay (MTS, 72 h), NCI-H460. It counts as cell-based, human. The settings on record: Homo sapiens, NCI-H460.
Source text: as §1, §2, §3

Data set [3] has as its system K-562, chronic myeloid leukemia. The experiment in a line: Proliferation assay (MTS, 72 h), K-562. It counts as cell-based, human. The settings on record: Homo sapiens, K562.
Source text: as §1, §2, §3

The test system of another data set is S. aureus ATCC 29213. The data set is described as follows: Broth microdilution MIC, S. aureus. In kind it is cell-based. The settings on record: Staphylococcus aureus, ATCC29213; read-out: MIC against S. aureus. On the procedure: as §4, §5, §6
For orientation: Dilution methods test growth across graded concentrations, often in twofold steps.

Data set [4] deals with HL-60, acute myeloid leukemia. The data set is described as follows: Proliferation assay (MTS, 72 h), HL-60. It counts as cell-based, human. Conditions: Homo sapiens, HL-60.
Source text: as §1, §2, §3

Data set [5] has as its system Z-138, non-Hodgkin lymphoma. The data set is described as follows: Proliferation assay (MTS, 72 h), Z-138. In kind it is cell-based, human. The settings on record: Homo sapiens, Z-138.
Source text: as §1, §2, §3

For a further data set, the system named is LN-229, glioblastoma. The experiment in a line: Proliferation assay (MTS, 72 h), LN-229. In kind it is cell-based, human. Conditions: Homo sapiens, LN-229.
Source text: as §1, §2, §3

In data set [6] the test system is HCT-116, colorectal carcinoma. The data set is described as follows: Proliferation assay (MTS, 72 h), HCT-116. It counts as cell-based, human. The settings on record: Homo sapiens, HCT-116.
Source text: as §1, §2, §3

Data set [7] concerns influenza A/H1N1 (A/Ned/378/05). The experiment in a line: Antiviral CPE reduction assay, influenza A/H1N1 in MDCK. It counts as cell-based. Conditions: Influenza A virus, MDCK cells, 100 CCID50, MTS.
A further data set has as its system sindbis virus. The experiment in a line: Antiviral CPE reduction assay, Sindbis virus in Huh-7. It counts as cell-based. The settings on record: Huh-7 cells, 100 CCID50, MTS.
The nature of data set [8]: in vitro. The settings on record: human.
In the next data set the test system is E. faecalis ATCC 29212. The experiment in a line: Broth microdilution MIC, E. faecalis. It counts as cell-based. Conditions: Enterococcus faecalis, ATCC29212; read-out: MIC against E. faecalis. On the procedure:
as §4, §5, §6

For data set [9], the system named is respiratory syncytial virus A (Long). The data set is described as follows: Antiviral CPE reduction assay, RSV A in HEL 299. In kind it is cell-based. Conditions: human respiratory syncytial virus; HEL 299 cells, 100 CCID50, MTS.
Data set [10] in a line: in vitro. The settings on record: human. This is another data set of the same source.
The nature of data set [11]: in vitro. Conditions: dog.
The next data set concerns Zika virus (Mr776). The experiment in a line: Antiviral CPE reduction assay, Zika virus in Huh-7. It counts as cell-based. Conditions: Huh-7 cells, 100 CCID50, MTS.
Data set [12] concerns herpes simplex virus-1 (HSV-1 KOS). The experiment in a line: Antiviral CPE reduction assay, HSV-1 KOS in HEL 299. The settings on record: Human alphaherpesvirus 1; HEL 299 cells, 100 CCID50, MTS. In kind it is cell-based.
Data set [13] concerns influenza A/H3N2 (A/HK/7/87). The experiment in a line: Antiviral CPE reduction assay, influenza A/H3N2 in MDCK. It counts as cell-based. Conditions: Influenza A virus, MDCK cells, 100 CCID50, MTS.
The test system of data set [14] is human coronavirus HCoV-OC43. The data set is described as follows: microbe, parasite or virus in culture. In kind it is cell-based. The settings on record: Betacoronavirus 1, OC43; HEL 299 cells, 100 CCID50, MTS; read-out: Antiviral Activity (EC50/μM) HCoV OC43 HEL 299.
Data set [15] relates to influenza B (B/Ned/537/05). The experiment in a line: Antiviral CPE reduction assay, influenza B in MDCK. The settings on record: Influenza B virus; MDCK cells, 100 CCID50, MTS. In kind it is cell-based.
The test system of data set [16] is human coronavirus HCoV-229E. The experiment in a line: organism not typed. In kind it is cell-based. The settings on record: HEL 299 cells, 100 CCID50, MTS; read-out: Antiviral Activity (EC50/μM) HCoV 229E HEL 299.
Data set [17] has as its system yellow fever virus (YFV 17D). The data set is described as follows: microbe, parasite or virus in culture. It counts as cell-based. The settings on record: Huh-7, read-out: Antiviral Activity (EC50/μM) YFV 17D Huh-7.
Data set [18] concerns human coronavirus HCoV-NL63. The experiment in a line: Antiviral CPE reduction assay, HCoV-NL63 in Huh-7. In kind it is cell-based. Conditions: Huh-7 cells, 100 CCID50, MTS.

As to `Cn1c(/N=C/c2ccc([N+](=O)[O-])cc2)nc2ccc(C#N)cc21` [Compound 37, (E)-1-Methyl-2-((4-nitrobenzylidene)amino)-1H-benzo[d]imidazole-6-carbonitrile], the IC50 was more than 100 µM in data set [1]; more than 100 µM in [2]; more than 100 µM in the data set on NCI-H460, lung carcinoma; more than 100 µM in data set [3]; more than 100 µM in data set [4]; more than 100 µM in [5]. Further, the IC50 with LN-229, glioblastoma is more than 100 µM; in data set [6], more than 100 µM. The “MIC E. coli efflux del” value against E. coli efflux del was more than 64. The MIC with S. aureus ATCC 29213 is 32 µM (≈ 9.77 µg/mL).

`CN(C)c1ccc(/C=N/c2nc3ccccc3n2-c2ccccc2)cc1` [Compound 38, (E)-N,N-Dimethyl-4-(((1-phenyl-1H-benzo[d]imidazol-2-yl)imino)methyl)aniline] gave a melting point of 204 to 207 °C. In [7], this molecule had an EC50 of more than 100 µM. In addition, the EC50 in the data set with sindbis virus was more than 100 µM. This molecule had a concentration for half-maximal inhibition (IC50) in [1] of more than 100 µM. This molecule showed an IC50 in [2] of more than 100 µM. The “MIC E. coli efflux del” value with E. coli efflux del was more than 64. The CC50 in “in vitro [8]” is more than 100 µM. The molecule further returned an IC50 in the data set on NCI-H460, lung carcinoma of more than 100 µM. Besides, in the data set on E. faecalis ATCC 29212, the MIC amounted to 32 µM (≈ 10.9 µg/mL). The molecule further had an EC50 in [9] of more than 100 µM. This molecule gave an IC50 in [3] of more than 100 µM. In the data set “in vitro [10]”, this molecule returned a CC50 of more than 100 µM. For the same molecule, in [4], the IC50 was more than 100 µM. For the same molecule, the CC50 in the data set “in vitro [11]” is more than 100 µM. Besides, in [5], the IC50 was more than 100 µM. In the data set with Zika virus (Mr776), this molecule showed an EC50 of more than 100 µM. In data set [12], this molecule had an EC50 of more than 100 µM. This molecule also had an EC50 in data set [13] of more than 100 µM. Besides, the EC50 in [14] amounted to 94.8 µM. The molecule further showed an IC50 in the data set on LN-229, glioblastoma of more than 100 µM. The molecule further registered an EC50 in data set [15] of more than 100 µM. For the same molecule, the EC50 in [16] is more than 100 µM. The EC50 in [17] was more than 100 µM. In data set [18], this molecule displayed an EC50 of more than 100 µM. In data set [6], this molecule came in with an IC50 of more than 100 µM.

In turn, `CCN(CC)c1ccc(/C=N/c2nc3ccc(C#N)cc3n2-c2ccccc2)c(O)c1` [Compound 41, (E)-2-((4-(Diethylamino)-2-hydroxybenzylidene)amino)-1-phenyl-1H-benzo[d]imidazole-6-carbonitrile] returned a melting point of 111 to 114 °C. Further, the EC50 in [7] is more than 100 µM. In addition, the EC50 in the data set with sindbis virus was more than 100 µM. In data set [1], the half-maximal inhibitory concentration (IC50) came out at 76.3 µM. Also, the IC50 in data set [2] turned out to be 69.5 µM. Further, in the data set on E. coli efflux del, the “MIC E. coli efflux del” value is more than 64. This molecule displayed a CC50 in “in vitro [8]” of more than 100 µM. In the data set with NCI-H460, lung carcinoma, this molecule registered an IC50 of more than 100 µM. For the same molecule, the MIC with E. faecalis ATCC 29212 stood at 32 µM (≈ 13.1 µg/mL). The molecule further yielded an EC50 in [9] of more than 100 µM. Besides, the IC50 in data set [3] was more than 100 µM. This molecule registered a CC50 in the data set “in vitro [10]” of more than 100 µM. Further, half-maximal inhibition in [4] (IC50) was put at 49.6 µM. The CC50 in “in vitro [11]” was found to be 71.6 µM. In addition, the IC50 in data set [5] stood at 35.2 µM. The EC50 with Zika virus (Mr776) is more than 100 µM. In data set [12], this molecule showed an EC50 of more than 100 µM. In [13], this molecule yielded an EC50 of more than 100 µM. In data set [14], the EC50 came out at 89.5 µM. In the data set with LN-229, glioblastoma, this molecule showed an IC50 of more than 100 µM. The molecule also came in with an EC50 in data set [15] of more than 100 µM. In data set [16], the EC50 is more than 100 µM. For the same molecule, in data set [17], the EC50 is more than 100 µM. Further, the EC50 in data set [18] is more than 100 µM. In addition, the IC50 in data set [6] was more than 100 µM.

One may read the IC50 as the concentration needed to halve the response being measured. Higher therefore signals weaker potency in that assay. Usually MIC stands for the least concentration at which growth counts as inhibited. One may read the melting point as the temperature, or range, at which the solid turns liquid.
